Reference: paper PMC8815882, “Screening the pandemic response box identified benzimidazole carbamates, Olorofim and ravuconazole as promising drug candidates for the treatment of eumycetoma” (PLoS Neglected Tropical Diseases, 2022)
Read-outs that look alike come from different tables or passages of the source.

Test system: M. mycetomatis genome strain MM55
Assay: CLSI M38-A2 based in vitro susceptibility screening (XTT or resazurin), growth at fixed concentration
Format: cell-based, Madurella mycetomatis
Conditions: Madurella mycetomatis; for Percent fungal survival at 100 µM: replicate 2, M. mycetomatis MM55, read-out: Percentage survival at 100um, 100 uM A (second replicate column)
[1] = mean of three, M. mycetomatis MM55, read-out: Percentage survival at 25um, 25 uM mean
[2] = replicate A, M. mycetomatis MM55, read-out: Percentage survival at 25um, 25 um A
[3] = replicate B, M. mycetomatis MM55, read-out: Percentage survival at 25um, 25 uM B
[4] = replicate C, M. mycetomatis MM55, read-out: Percentage survival at 25um, 25 uM C
[5] = mean of three, M. mycetomatis MM55, read-out: Percentage survival at 100um, 100 uM mean
[6] = replicate 1, M. mycetomatis MM55, read-out: Percentage survival at 100um, 100 uM A (first replicate column)
[7] = replicate 3, M. mycetomatis MM55, read-out: Percentage survival at 100um, 100 uM A (third replicate column)
[8] = mean of replicates, read-out: Percentage survival at 25um, 25 uM mean
[9] = replicate A, read-out: Percentage survival at 25um, 25 um A
[10] = replicate B, read-out: Percentage survival at 25um, 25 uM B
[11] = replicate C, read-out: Percentage survival at 25um, 25 uM C
[12] = mean of replicates, read-out: Percentage survival at 100um, 100 uM mean
[13] = replicate 1, read-out: Percentage survival at 100um, 100 uM A
[14] = replicate 2, read-out: Percentage survival at 100um, 100 uM A
[15] = replicate 3, read-out: Percentage survival at 100um, 100 uM A

Compound O=C(NCc1ccccc1Cl)c1cnc2ccccc2n1 [MMV1230557] has an activity at 25 µM [1] of 56.8%, an activity at 25 µM [2] of 50.8% and an activity at 25 µM [3] of 54.2%. It also gave an activity at 25 µM [4] of 65.3%, an activity at 100 µM [5] of 67.2% and an activity at 100 µM [6] of 41.9%. For the same compound, the Percent fungal survival at 100 µM was 71.7% and the activity at 100 µM [7] was 88.1%.

O=C(NCc1ccc2c3c(cccc13)C(=O)N2)c1cccs1 [MMV1341773] showed an activity at 25 µM [8] of 75.4%, an activity at 25 µM [9] of 79.8% and an activity at 25 µM [10] of 76.7%. The activity at 25 µM [11] was 69.6%, the activity at 100 µM [12] was 76.2% and the activity at 100 µM [13] was 75.7%. It also gave an activity at 100 µM [14] of 74% and an activity at 100 µM [15] of 78.8%.

COc1c(F)c(F)cc2c(=O)c(C(=O)O)cn(C3CC3)c12 [MMV1480967] was tested, and the activity at 25 µM [8] was 104%, the activity at 25 µM [9] was 87.1% and the activity at 25 µM [10] was 91%. For the same compound, the activity at 25 µM [11] was 135%, the activity at 100 µM [12] was 77.9% and the activity at 100 µM [13] was 85.8%. For the same compound, the activity at 100 µM [14] was 67.1% and the activity at 100 µM [15] was 80.8%.

COc1ccc(NC(=O)CC2Sc3ncnn3C2=O)cc1 (stereo not shown) [MMV1483032] showed an activity at 25 µM [1] of 78.4%, an activity at 25 µM [2] of 82.6% and an activity at 25 µM [3] of 81.9%. It also gave an activity at 25 µM [4] of 70.7%, an activity at 100 µM [5] of 36% and an activity at 100 µM [6] of -1.84%. It also gave a Percent fungal survival at 100 µM of 1.55% and an activity at 100 µM [7] of 108%.

CC1(C)Cc2c(C#N)c(SCCc3ccccc3)nc(N3CCOCC3)c2CO1 [MMV1549626] showed an activity at 25 µM [1] of 62.3%, an activity at 25 µM [2] of 67.7% and an activity at 25 µM [3] of 59.1%. For the same compound, the activity at 25 µM [4] was 60.3%, the activity at 100 µM [5] was 87.3% and the activity at 100 µM [6] was 92.1%. It also gave a Percent fungal survival at 100 µM of 105% and an activity at 100 µM [7] of 65.1%.

For CC[C@H](NC(=O)[C@H](C)NC)C(=O)N1C[C@@H](O)C[C@H]1Cc1c(-c2[nH]c3cc(F)ccc3c2C[C@@H]2C[C@H](O)CN2C(=O)[C@H](CC)NC(=O)[C@H](C)NC)[nH]c2cc(F)ccc12 [MMV1557856], the activity at 25 µM (mean of replicates, MM55, read-out: Percentage survival at 25um, 25 uM mean) was 83.4%, the activity at 25 µM (replicate A, MM55, read-out: Percentage survival at 25um, 25 um A) was 88.1% and the activity at 25 µM (replicate B, MM55, read-out: Percentage survival at 25um, 25 uM B) was 92.5%. The activity at 25 µM (replicate C, MM55, read-out: Percentage survival at 25um, 25 uM C) was 69.7%, the activity at 100 µM (mean of replicates, MM55, read-out: Percentage survival at 100um, 100 uM mean) was 68.8% and the activity at 100 µM (replicate 1, MM55, read-out: Percentage survival at 100um, 100 uM A) was 72.6%. For the same compound, the activity at 100 µM (replicate 2, MM55, read-out: Percentage survival at 100um, 100 uM A) was 66.6% and the activity at 100 µM (replicate 3, MM55, read-out: Percentage survival at 100um, 100 uM A) was 67.1%.

Work on O=C1NC(=O)C(Br)=C1Br [MMV1578554] yielded an activity at 25 µM [8] of 76.9%, an activity at 25 µM [9] of 80.1% and an activity at 25 µM [10] of 86.3%. It also gave an activity at 25 µM [11] of 64.3%, an activity at 100 µM [12] of 43.3% and an activity at 100 µM [13] of -3.69%. For the same compound, the activity at 100 µM [14] was 60.2% and the activity at 100 µM [15] was 73.5%.

O=C(Nc1ccc(F)cc1)c1nn(-c2ccccc2)c(=O)cc1Cl [MMV1578555] gave an activity at 25 µM [8] of 76.7%, an activity at 25 µM [9] of 84.2% and an activity at 25 µM [10] of 79.1%. It also gave an activity at 25 µM [11] of 66.7%, an activity at 100 µM [12] of 1.51% and an activity at 100 µM [13] of 0.758%. The activity at 100 µM [14] was 0.453% and the activity at 100 µM [15] was 3.31%.

C[C@H]1CC[C@@]2(O)C(C)(C)[C@@H]3CC[C@@]2(C)[C@H]1C3 [MMV1578556] was tested, and the activity at 25 µM [1] was 75.9%, the activity at 25 µM [2] was 69.5% and the activity at 25 µM [3] was 83.8%. For the same compound, the activity at 25 µM [4] was 74.3%, the activity at 100 µM [5] was 84.9% and the activity at 100 µM [6] was 79.8%. It also gave a Percent fungal survival at 100 µM of 92.6% and an activity at 100 µM [7] of 82.4%.

For Cc1c(N)cccc1Cn1ccc(OCCc2cccs2)cc1=O [MMV1578557], the activity at 25 µM [1] was 79.8%, the activity at 25 µM [2] was 82.2% and the activity at 25 µM [3] was 84.5%. The activity at 25 µM [4] was 72.6%, the activity at 100 µM [5] was 78.3% and the activity at 100 µM [6] was 73%. It also gave a Percent fungal survival at 100 µM of 81.9% and an activity at 100 µM [7] of 80%.

CCc1oc2ccccc2c1C(=O)c1ccc(O)cc1 [MMV1578558] showed an activity at 25 µM [8] of 91.9%, an activity at 25 µM [9] of 95.8% and an activity at 25 µM [10] of 97%. For the same compound, the activity at 25 µM [11] was 82.9%, the activity at 100 µM [12] was 2.03% and the activity at 100 µM [13] was -1.97%. It also gave an activity at 100 µM [14] of 6.39% and an activity at 100 µM [15] of 1.66%.
